One data set concerns healthy volunteers. As to conditions: cited from earlier work.
Details of data set [1]: method as in Zhang, 1997; Li et al., 2001; Li, 2010. The following applies: rat liver microsomes, ref Zhang, 1997, Li et al., 2001, 2010; cited from earlier work. A general note: Liver microsomes are a subcellular fraction often used to study metabolism.
Details of data set [2]: method as in Zhang, 1997; Li et al., 2001; Li, 2010. The following applies: human liver microsomes, ref Zhang, 1997, Li et al., 2001, 2010; cited from earlier work.
Data set [3] can be described thus: Plasma PK in the rat after oral dosing (observed). The following applies: male, Wistar; for AUC(0-t): read-out: AUC0-t Observed; for AUC(0-inf): read-out: AUC0-∞ Observed; for MRT inf: read-out: MRT(0-∞) Observed. Format: in vivo, male Wistar rats. The text has this: Animal Care and Welfare Committee of Institute of Materia Medica, Chinese Academy of Medical Sciences approved all animal protocols (1 Xian nong tan Street, Xicheng District, Beijing, China; Permission Number: SYXK 2014-0023, Expiration: 06 Aug, 2019). All animal programs are in compliance with the Guide for the Care and Use of Laboratory Animals issued by Beijing Association on Laboratory Animal Care (BALAC). Buagafuran formulation of PVP was suspended in deionized water and was orally administered at 4 or 8 mg/kg to male Wistar rats (weighing 180–200 g). Brain samples treated with the dose of 4 mg/kg and blood samples of both treatments were collected over 3 h. Plasma samples were obtained by centrifugation, and brain tissues were homogenized in a threefold volume (w/v) of saline. Buagafuran concentrations in plasma and brain samples were quantitated by an LC-MS/MS method ([Yang et al., 2011]).
A volume of 200 μL plasma or tissue homogenate was mixed with 100 μL IS (10 ng/mL) followed by addition of 2 mL hexane. After vortexing for 2 min, the mixture was centrifuged for 5 min at 3000 g. The extracted solution was combined and evaporated to dryness at 25°C. The residues were reconstituted in 80 μL of 80% methanol. The chromatographic separation and mass spectrometric analysis was performed on a LC/TSQ Quantum Access mass spectrometer (Thermo Finnigan, San Jose, CA, United States). Ten microliter of the sample was injected onto an Agilent Eclipse Plus C18 analytical column (3.5 μm, 50 mm × 2.1 mm) and then buagafuran and IS were eluted with a gradient of acetonitrile (phase B) and water containing 0.1% v/v formic acid (phase A). The elution program was applied as follows: 50% B for 0–0.5 min, 50% B→97% B for 0.6–5.5 min, 50% B for 5.6–7.6 min. The outlet of the column was detected in positive ionization electrospray mode with selected reaction monitoring. The monitored transitions of buagafuran and IS were m/z 245→105 and 500→142, respectively. The retention time (RT) of buagafuran was 6.13 min. The linear range of the calibration curve was 0.5–800 ng/mL.
Pharmacokinetic parameters were determined with a non-compartmental model using WinNonlin v 6.0 (Pharsight Corporation, Mountain View, CA, United States). The area under the compound concentration versus time curve from time zero to the last time point (AUC0-t) and extrapolated to infinity (AUC0-∞) and the peak plasma concentration (Cmax) were calculated.

In another data set the test system is CYP3A and CYP2E. Also noted: method as in Zhang, 1997; Li et al., 2001; Li, 2010. As to conditions: ref Zhang, 1997, Li et al., 2001, 2010; cited from earlier work.
Data set [4] is described as follows: Biopharmaceutical classification system (BCS). Format: physicochemical.
A further data set deals with Caco-2 cells. The data set can be described thus: Caco-2 transport study. Format: in vitro ADME. On the set-up: Caco-2 Papp: unit not given here. As to conditions: PBPK input parameter; 50 μM. The protocol:
(§1) Caco-2 Cells from passage 38 were applied to the transport experiments. Cells were seeded on polycarbonate filters (12 mm diameter, pore size 0.4 μm). The cell monolayers were used 21 days post seeding. Buagafuran was dissolved in DMSO. It was further diluted to 50 μM with HBSS. The final buagafuran concentration was 50 μM. For absorptive (AP→BL) permeability test, drug solution (0.4 mL) was added to the apical chamber. For secretive (BL→AP) permeability experiments, drug solution (0.6 mL) was added to the basolateral chamber, then 50 μL samples (n = 3) were withdrawn from receiver chamber at specified times and 50 μL fresh buffer was added in the receiver chamber. The experiments were carried out in triplicate at 4 time points.
(§2) Transport of buagafuran was tested using a linear model. The regression line was validated by inspection with naked eye and the value of correlation coefficient was R > 0.9. The apparent permeability coefficient (Papp) was calculated by the formula Papp = (ΔQ/Δt)/ACo, where ΔQ/Δt is the transport rate (nmol/s), which remained approximately constant in time, A is the well membrane area (0.6 cm^2), and Co is the initial concentration of buagafuran (μM). The efflux rate (ER) was the ratio of the Papp from the basolateral to apical cells versus the Papp from the apical to basolateral cells. Transport of the tested drug is linear over the incubation times of 30–120 min.

The nature of the next data set: Caco-2 transport study. Also noted: Caco-2 Papp: unit not given here. Format: in vitro ADME. The following applies: human, Caco-2 monolayer. The protocol: as §1, §2

We go through one compound from paper PMC5641330, “Prediction of a Therapeutic Dose for Buagafuran, a Potent Anxiolytic Agent by Physiologically Based Pharmacokinetic/Pharmacodynamic Modeling Starting from Pharmacokinetics in Rats and Human” (Frontiers in Pharmacology, 2017).

Where two headings read alike, the source gives them in different places.

As usually defined, the Cmax is the highest concentration seen after dosing. In the case of `CCCCC1=CCC[C@@]2(C)CC[C@@H]3C[C@]12OC3(C)C` [buagafuran], in the data set on healthy volunteers (healthy volunteers, phase I, ref Wang et al., 2011, Chen X. et al., 2013, Yang et al.), the “well tolerated multiple doses” value is on record as “up to 120 mg twice daily”. Besides, the “most common side effect” value in the data set with healthy volunteers (phase I trials, ref Zhang, 1997, Li et al., 2001) is reported as “drowsiness”. Besides, the extraction ratio entry in data set [1] is recorded as “about 50%”. For the same compound, the extraction ratio entry in data set [2] is “about 50%”. For the same compound, in data set [3] (oral 4 mg/kg), the Cmax is 5.31 ng/mL, the AUC(0-t) was found to be 6.69 ng·h/mL, the AUC(0-inf) turned out to be 11.4 ng·h/mL and the MRT inf was determined as 212 min. Besides, the Tmax in data set [3] (oral 4 mg/kg, read-out: Tmax Observed) was determined as 15 min. Further, in data set [3] (oral 8 mg/kg), the Cmax amounted to 10.6 ng/mL, the AUC(0-t) was determined as 14.2 ng·h/mL, the AUC(0-inf) was 15.1 ng·h/mL and the MRT inf came to 72.6 min. Further, in data set [3] (single oral dosing 4 and 8 mg/kg, read-out: time of peak plasma concentration (converted)), the Tmax was 15 min. Further, the “major enzymes involved in its metabolism in vitro” value in the data set with CYP3A and CYP2E was “CYP3A and CYP2E”. In addition, in data set [4], the “biopharmaceutical classification system (BCS) class” value is “Class II”. Besides, the “Caco-2 Papp” value with Caco-2 cells was 19.5 × 10^-5. In addition, the Papp A→B at 50 μM in “Caco-2 transport study” (read-out: apparent permeability coefficient (AP to BL)) came to 195 ×10⁻⁶ cm/s. Moreover, the Papp B→A at 50 μM in the data set “Caco-2 transport study” (read-out: apparent permeability coefficient (BL to AP)) turned out to be 438 ×10⁻⁶ cm/s.
